Measured values from patent US20140011930A1, “Bio-Renewable Carboxylic Acid Esters and Mixtures Thereof Useful as Plasticizers” (TEKNOR APEX COMPANY, priority 2012, published 2014).

Columns and labels:
Format in all cases: physicochemical
[1] = Dynamic Heat Stability (ASTM D-2538)
[2] = Tensile, 100% modulus, elongation of PVC compounds (ASTM D-638); set-up: 100% Modulus: unit not given here
[3] = Hardness (Shore) of PVC compounds (ASTM D-2240)
[4] = Specific Gravity of PVC compounds (ASTM D-792)
[5] = Brittle Point (ASTM D-746)
[6] = % Volatile Loss (ASTM D-1203)
[7] = Oven Stability (210° C.) (ASTM D-1203)
[8] = Loop Spew compatibility test (ASTM D-3291)
Description: This plasticizer was evaluated in the same formulations as test compounds 1, 2, 3 along with DEHP and Example 1.
PVC compounds were prepared with the plasticizers described in Example 1 and Example 2, and a commercial sample of DEHP, containing standard heat stabilizers, antioxidant and a lubricant. The compounds were evaluated in standard laboratory tests according the following ASTM methods: […]

[9] = Gamma irradiation stability (yellowness index YI)
From the text: Additional advantages of the compounds of the invention are their low cytotoxicity and resistance to gamma radiation especially when compared to the industry standard of di-2-ethylhexyl phthalate (DEHP). Gamma radiation stability is important since it allows for the convenient sterilization of articles prepared from PVC compound. The key performance standard is non-yellowing of the PVC compound after exposure to gamma radiation. An example of the improvement in gamma stability is shown below.

[10] = PVC Test Compound 59-67 A Gauge
[11] = PVC Test Compound 59-67 A Gauge, DEHP vs Example 1/ESO series
[12] = PVC Test Compound 80-85 C Gauge
[13] = PVC Test Compound 80-85 C Gauge, DEHP vs Example 1/ESO series
[14] = PVC Test Compound 81-85 A Gauge
[15] = PVC Test Compound-Gamma Irradiation Stability-A
[16] = Gamma Radiation = 35 kGys (3.5 Mrads)
[17] = Gamma Radiation = 35 kGys (3.5 Mrads), oven aging 48 hr. at 50° C.

CCCCC(CC)COC(=O)c1ccccc1C(=O)OCC(CC)CCCC (stereo not shown) [DEHP, di-(2-ethylhexyl) phthalate]
Dynamic Heat Stability [1, 10]: 72 min | Dynamic Heat Stability [1, 11]: 54 | Dynamic Heat Stability [1, 12]: 19 min | Dynamic Heat Stability [1, 13]: 7 min | Dynamic Heat Stability [1, 14]: 40 min | 100% Modulus [2, 10]: 554 | % Elongation [2, 10]: 439% | Tensile (psi) [2, 10]: 1559 psi | 100% Modulus [2, 11]: 518 | % Elongation [2, 11]: 451% | Tensile (psi) [2, 11]: 1564 psi | 100% Modulus [2, 12]: 3440 | % Elongation [2, 12]: 281% | Tensile (psi) [2, 12]: 3840 psi | 100% Modulus [2, 13]: 3617 | % Elongation [2, 13]: 282% | Tensile (psi) [2, 13]: 4083 psi | 100% Modulus [2, 14]: 1490 | % Elongation [2, 14]: 380% | Tensile (psi) [2, 14]: 2875 psi | Hardness Shore A (15 sec delay) [3, 10]: 60 | Hardness Shore A (instant) [3, 10]: 68 | Hardness Shore A (15 sec delay) [3, 11]: 56 | Hardness Shore A (instant) [3, 11]: 60 | Hardness Shore C (10 sec delay) [3, 12]: 85 | Hardness Shore C (instant) [3, 12]: 93 | Hardness Shore C (10 sec delay) [3, 13]: 85 | Hardness Shore C (instant) [3, 13]: 90 | Hardness Shore C (10 sec delay) [3, 14]: 83 | Hardness Shore C (instant) [3, 14]: 90 | Hardness Shore A (15 sec delay) [3, 15]: 86 | Hardness Shore A (instant) [3, 15]: 91 | Specific Gravity [4, 10]: 1.16 | Specific Gravity [4, 11]: 1.16 | Specific Gravity [4, 12]: 1.28 | Specific Gravity [4, 13]: 1.28 | Specific Gravity [4, 14]: 1.23 | Specific Gravity [4, 15]: 1.24 | Brittle Point ° C. [5, 10]: −48.5 °C | Brittle Point ° C. [5, 11]: −50.5 °C | Brittle Point ° C. [5, 12]: −17.0 °C | Brittle Point ° C. [5, 13]: −22 °C | Brittle Point ° C. [5, 14]: −34.5 °C | % Volatile Loss [6, 10]: 3.54% | % Volatile Loss [6, 11]: 4.58% | % Volatile Loss [6, 12]: 1.56% | % Volatile Loss [6, 13]: 1.67% | % Volatile Loss [6, 14]: 2.73% | Oven Stability (210° C.) Decomposition Failure [7, 10]: 50 min | Oven Stability (210° C.) Initial Color [7, 10]: Clear | Oven Stability (210° C.) Initial Color Failure [7, 10]: 15 min | Oven Stability (210° C.) Decomposition Failure [7, 11]: 60 min | Oven Stability (210° C.) Initial Color [7, 11]: Clear | Oven Stability (210° C.) Initial Color Failure [7, 11]: 15 min | Oven Stability (210° C.) Decomposition Failure [7, 12]: 50 min | Oven Stability (210° C.) Initial Color [7, 12]: Clear | Oven Stability (210° C.) Initial Color Failure [7, 12]: 15 min | Oven Stability (210° C.) Decomposition Failure [7, 13]: 50 min | Oven Stability (210° C.) Initial Color [7, 13]: Clear | Oven Stability (210° C.) Initial Color Failure [7, 13]: 10 min | Oven Stability (210° C.) Decomposition Failure [7, 14]: 50 min | Oven Stability (210° C.) Initial Color [7, 14]: Clear | Oven Stability (210° C.) Initial Color Failure [7, 14]: 15 min | Loop Spew [8, 10]: None | Loop Spew [8, 11]: None | Loop Spew [8, 12]: None | Loop Spew [8, 13]: None | Loop Spew [8, 14]: None | Absolute YI After 35 kGys Gamma [9, 16]: 12.24 | Change in YI from Original After 35 kGys Gamma [9, 16]: 5.46 | Absolute YI After 35 kGys Gamma and Oven Aging (48 hr. at 50° C.) [9, 17]: 17.58 | Change in YI from Original After 35 kGys Gamma and Oven Aging (48 hr. at 50° C.) [9, 17]: 10.80 | Absolute YI Original ([9]; before irradiation): 6.78
